# Assay results reported in ChEMBL document CHEMBL3885861, “Open TG-GATES”.
# Species on record: Rattus norvegicus
# Assay: Open TG-GATES - Regimen: Single
# Type: toxicity, organism-based, Sprague-Dawley
# Design: regimen Single, gender Male, age 6 weeks
# Conditions: in vivo, po, 100 mg/kg, route gavage, dose level Middle; for APTT / Bas / Eos / Fbg / Hb / Ht / Lym / MCH / MCHC / MCV / Mono / Neu / PT / Plat / RBC / Ret / WBC: tissue Blood; for KIDNEY_L / KIDNEY_R / KIDNEY_TOTAL: tissue Kidney; for LIVER: tissue Liver; for A/G / ALP / ALT / AST / BUN / CRE / Ca / Cl / DBIL / GLC / IP / K / LDH / Na / PL / RALB / TBIL / TC / TG / TP / gamma-GTP: tissue Plasma
smiles,measurement,setting,value
ClC(Cl)(Cl)Cl [CARBON TETRACHLORIDE],TERMINAL_BW,3 h,207.5 g
same,APTT,3 h,20.3 s
same,Bas,3 h,0%
same,Eos,3 h,1%
same,Fbg,3 h,222.4 mg/dL
same,Hb,3 h,12.7 g/dL
same,Ht,3 h,36.6%
same,Lym,3 h,76.4%
same,MCH,3 h,21.8 pg
same,MCHC,3 h,34.8%
same,MCV,3 h,62.7 fL
same,Mono,3 h,2.8%
same,Neu,3 h,19.8%
same,PT,3 h,12.6 s
same,Plat,3 h,129.7 x10_4/uL
same,RBC,3 h,583.2 x10_4/ul
same,Ret,3 h,8.7%
same,WBC,3 h,76.6 x10_2/uL
same,KIDNEY_L,3 h,0.9 g
same,KIDNEY_R,3 h,0.9 g
same,KIDNEY_TOTAL,3 h,1.8 g
same,LIVER,3 h,9.4 g
same,A/G,3 h,1.7
same,ALP,3 h,1077.4 IU/L
same,ALT,3 h,36.2 IU/L
same,AST,3 h,70 IU/L
same,BUN,3 h,10.2 mg/dL
same,CRE,3 h,0.4 mg/dL
same,Ca,3 h,10.8 mg/dL
same,Cl,3 h,104.6 meq/L
same,DBIL,3 h,0.1 mg/dL
same,GLC,3 h,186.4 mg/dL
same,IP,3 h,9.4 mg/dL
same,K,3 h,3.9 meq/L
same,LDH,3 h,156 IU/L
same,Na,3 h,140.2 meq/L
same,PL,3 h,148.6 mg/dL
same,RALB,3 h,3.4 g/dL
same,TBIL,3 h,0.2 mg/dL
same,TC,3 h,73.6 mg/dL
same,TG,3 h,103.8 mg/dL
same,TP,3 h,5.4 g/dL
same,gamma-GTP,3 h,1.2 IU/L
same,TERMINAL_BW,6 h,204.2 g
same,APTT,6 h,18 s
same,Bas,6 h,0%
same,Eos,6 h,1%
same,Fbg,6 h,224.8 mg/dL
same,Hb,6 h,13.3 g/dL
same,Ht,6 h,38.1%
same,Lym,6 h,71.2%
same,MCH,6 h,21.8 pg
same,MCHC,6 h,35%
same,MCV,6 h,62.4 fL
same,Mono,6 h,3%
same,Neu,6 h,24.8%
same,PT,6 h,12.7 s
same,Plat,6 h,134.8 x10_4/uL
same,RBC,6 h,611 x10_4/ul
same,Ret,6 h,8.8%
same,WBC,6 h,76 x10_2/uL
same,KIDNEY_L,6 h,0.9 g
same,KIDNEY_R,6 h,0.9 g
same,KIDNEY_TOTAL,6 h,1.8 g
same,LIVER,6 h,9 g
same,A/G,6 h,1.8
same,ALP,6 h,913.2 IU/L
same,ALT,6 h,35 IU/L
same,AST,6 h,65.6 IU/L
same,BUN,6 h,11.4 mg/dL
same,CRE,6 h,0.4 mg/dL
same,Ca,6 h,10.5 mg/dL
same,Cl,6 h,104 meq/L
same,DBIL,6 h,0.1 mg/dL
same,GLC,6 h,190.2 mg/dL
same,IP,6 h,10.2 mg/dL
same,K,6 h,3.9 meq/L
same,LDH,6 h,164.6 IU/L
same,Na,6 h,140.2 meq/L
same,PL,6 h,154.4 mg/dL
same,RALB,6 h,3.5 g/dL
same,TBIL,6 h,0.2 mg/dL
same,TC,6 h,78.8 mg/dL
same,TG,6 h,67.2 mg/dL
same,TP,6 h,5.4 g/dL
same,gamma-GTP,6 h,1.4 IU/L
same,TERMINAL_BW,9 h,205.2 g
same,APTT,9 h,18.5 s
same,Bas,9 h,0%
same,Eos,9 h,0.8%
same,Fbg,9 h,229.8 mg/dL
same,Hb,9 h,12.9 g/dL
same,Ht,9 h,37%
same,Lym,9 h,74.2%
same,MCH,9 h,21.2 pg
same,MCHC,9 h,34.8%
same,MCV,9 h,60.8 fL
same,Mono,9 h,3%
same,Neu,9 h,21.8%
same,PT,9 h,12.5 s
same,Plat,9 h,125.2 x10_4/uL
same,RBC,9 h,610.4 x10_4/ul
same,Ret,9 h,8%
same,WBC,9 h,72.7 x10_2/uL
same,KIDNEY_L,9 h,0.9 g
same,KIDNEY_R,9 h,0.9 g
same,KIDNEY_TOTAL,9 h,1.8 g
same,LIVER,9 h,8.4 g
same,A/G,9 h,1.6
same,ALP,9 h,848.2 IU/L
same,ALT,9 h,28.2 IU/L
same,AST,9 h,62.4 IU/L
same,BUN,9 h,11.4 mg/dL
same,CRE,9 h,0.4 mg/dL
same,Ca,9 h,10.5 mg/dL
same,Cl,9 h,103.6 meq/L
same,DBIL,9 h,0.1 mg/dL
same,GLC,9 h,196 mg/dL
same,IP,9 h,10.3 mg/dL
same,K,9 h,3.7 meq/L
same,LDH,9 h,173.2 IU/L
same,Na,9 h,140.4 meq/L
same,PL,9 h,141.2 mg/dL
same,RALB,9 h,3.3 g/dL
same,TBIL,9 h,0.2 mg/dL
same,TC,9 h,66.6 mg/dL
same,TG,9 h,65 mg/dL
same,TP,9 h,5.5 g/dL
same,gamma-GTP,9 h,0.8 IU/L
same,TERMINAL_BW,24 h,210.9 g
same,APTT,24 h,18.9 s
same,Bas,24 h,0%
same,Eos,24 h,1%
same,Fbg,24 h,229.8 mg/dL
same,Hb,24 h,13.6 g/dL
same,Ht,24 h,39.4%
same,Lym,24 h,79.4%
same,MCH,24 h,21.8 pg
same,MCHC,24 h,34.5%
same,MCV,24 h,63 fL
same,Mono,24 h,3.4%
same,Neu,24 h,15.8%
same,PT,24 h,12.6 s
same,Plat,24 h,126.7 x10_4/uL
same,RBC,24 h,625.2 x10_4/ul
same,Ret,24 h,8.6%
same,WBC,24 h,98.1 x10_2/uL
same,KIDNEY_L,24 h,0.9 g
same,KIDNEY_R,24 h,0.9 g
same,KIDNEY_TOTAL,24 h,1.8 g
same,LIVER,24 h,10.1 g
same,A/G,24 h,1.7
same,ALP,24 h,987 IU/L
same,ALT,24 h,38.2 IU/L
same,AST,24 h,70.2 IU/L
same,BUN,24 h,16.8 mg/dL
same,CRE,24 h,0.4 mg/dL
same,Ca,24 h,10.8 mg/dL
same,Cl,24 h,104.4 meq/L
same,DBIL,24 h,0.082 mg/dL
same,GLC,24 h,189.4 mg/dL
same,IP,24 h,8.1 mg/dL
same,K,24 h,4.1 meq/L
same,LDH,24 h,280 IU/L
same,Na,24 h,140.4 meq/L
same,PL,24 h,148.2 mg/dL
same,RALB,24 h,3.5 g/dL
same,TBIL,24 h,0.1 mg/dL
same,TC,24 h,70.4 mg/dL
same,TG,24 h,78 mg/dL
same,TP,24 h,5.6 g/dL
same,gamma-GTP,24 h,1 IU/L
